Reference: article PMC9775322, “An Integrated Analysis of Mechanistic Insights into Biomolecular Interactions and Molecular Dynamics of Bio-Inspired Cu(II) and Zn(II) Complexes towards DNA/BSA/SARS-CoV-2 3CL^pro by Molecular Docking-Based Virtual Screening and FRET Detection” (Biomolecules, 2022)

How the values were obtained:
[1] = system: CT-DNA; experiment: DNA binding by cyclic voltammetry; parameters: species or system calf; conditions: for Kb, Method II: Cp/Cf vs [DNA]; for Kb, Method III: Ip^2 vs (Ipo^2 − Ip^2)/[DNA]; for Kred/Koxi (Calcd): Nernst equation, Ant.log nEs°/0.0591, n = 1; for Kred/Koxi Found (I): from method I binding constants; for Kb, Method I, Oxi / Kb, Method I, Red: log (1/[DNA]) vs log (I/I0 − I); for Kb, Method I, Oxi: oxidation; for Kb, Method I, Red: reduction; for S (binding site size): method II
Description: The CV experiment was carried out for free substances at 10 µM at room temperature with a 5 mM Tris-HCl/50 mM NaCl buffer solution (pH: 7.4). While CT-DNA increases (0–10 µM) in each sample solution, shifts in potential, including variations in the anodic and cathodic peak currents, have been monitored.
2.2.7. Evaluation of DNA interaction properties using cyclic voltammetry technique The electrochemical analysis is a critical entity to examine the electron transfer reactions of the test compounds. With a scan rate of 0.1V, the CHI 620C electrochemical analyzer was utilized with a three-electrode system consisting of glassy carbon as the working electrode, Ag/AgCl as the reference electrode, and platinum wire as the counter/auxiliary electrode to monitor changes in peak current and peak potential during the interaction between test compound and DNA. The changes in peak current and peak potential further afford data on the binding constant as well as the mode of interaction for test compound –DNA adducts. In single-compartment cells of 5 –15 mL, electrochemical titrations for all test compounds were executed at 25 °C in the absence and presence of DNA. The solutions were then deoxygenated by passing them through N 2 before measurements were made. The electrochemical analysis for free compounds was executed at a 10 µM concentration in the presence of 5mM Tr is-HCl /50 mM NaCl (pH = 7.2) buffer solution. Changes in the anodic […]
and cathodic peak currents, as well as potential shifts, have been observed as CT-DNA concentrations in each solution of complexes rise from 1 to 10 µM [32].
I ) = log [DNA] + log Kb (S24)
The peak currents of the chemical in the absence and presence of deoxyribonucleic acid are designated as I0 and I, respectively.
Kb values for all samples were estimated through the linear regression plot of log (1/[DNA]) versus log (I/I0–I) by method-I. Equation (S26) was attained from equation (S25).
Cf and Cb are represented as the free substance concentration and DNA-interacted compound, respectively, and equation (S28) was obtained by comparing equations (S26) and (S27).
Ipa is denoted as the anodic peak current in amperes, n is represented as the number of electrons participating in the redox (M 1+/M2+) process (n=1), The activation coefficient (charge transfer coefficient) is shown by the symbol α. and the value is equal to 0.5, which is a typically supported approximation for numerous quasi-reversible systems.
2.3. DFT and molecular modelling studies
DFT calculations were performed to comprehend the electronic structure and reactivity of ligand (HL) and metal complexes ( 1b-2b) using the Gaussian 09 package [ 34]. Geometries were fully optimized both in the gas phase and methanol solution using B3LYP, and comparatively later with the CAM-B3LYP and M06-2X functionals. For each complex, the […]

[2] = system: Bacillus cereus; experiment: Agar disc diffusion antibacterial test; conditions: for Inhibition %: (T–C)/T × 100
[3] = DPPH radical scavenging assay; format: biochemical; conditions: 517 nm
[4] = system: Mucor indicus; experiment: Agar disc diffusion antifungal test; conditions: for Inhibition %: (T–C)/T × 100
[5] = system: CT-DNA; experiment: DNA binding by UV–visible absorption titration; parameters: species or system calf; conditions: for % H (hypochromism) / Δλ nm (red shift on binding to CT-DNA): compound 50 μM, DNA 0–50 μM, Tris-HCl buffer pH 7.4, 25 °C; for Kb, BH–I (Benesi–Hildebrand method I) / Kb, BH–II (Benesi–Hildebrand method II) / Kb, SK–I (Sakthi–Krause method I) / Kb, SK–II (Sakthi–Krause method II) / Kb, WS–I (Wolfe-Shimmer method I) / Kb, WS–II (Wolfe-Shimmer method II): intrinsic DNA binding constant; for ΔGb°, BH–I / ΔGb°, BH–II / ΔGb°, SK–I / ΔGb°, SK–II / ΔGb°, WS–I / ΔGb°, WS–II: −RT ln Kb, T = 298 K
Description: The DNA-binding experiment was performed by a UV–visible spectrophotometer by raising the DNA concentration from zero to 50 μM to the given concentration of all samples (50 μM) in Tris-HCl buffer with a pH of 7.4 at 25 °C [21, 22].
2.2.2. Evaluation of DNA-binding characteristics
By increasing the concentration of DNA (0 –50 μM), electronic absorption titrations were performed at the fixed concentration (50 μM) of all test compounds in aqueous media at room temperature. The Tris-HCl buffer (5mM Tris-HCl /50 mM NaCl, pH = 7.2) solution was guaranteed to be pure and contain sufficient amounts of DNA. Using the molar extinction coefficient (6600 M −1 cm−1) at 260 nm, it was also possible to measure the DNA concentration per nucleotide and polynucleotide, denoting that the DNA was sufficiently free of protein by the ratio of absorbance at 260 and 280 nm of roughly 1.8 –1.9 [21, 22]. When raising the concentration of DNA in compound solution, up to the point of completely binding, the decrease in absorbance intensity was carefully observed. […]
ɛa is represented as the apparent absorption coefficient value for the MLCT band at a specific concentration of deoxyribonucleic acid and evaluated from Abs/[complex]. ɛ f and ɛb are the absorption coefficients for the chemical substance alone and completely interacted with deoxyribonucleic acid, respectively. ∆Amax = (Amax–A0); ∆A=(Ax–A0), where A0, Ax and Amax are denoted as the optical density of chemical substances alone, the middle form, and the completely interacted form with deoxyribonucleic acid, respectively.

[6] = Hydroxyl radical scavenging assay; format: biochemical; conditions: 230 nm
[7] = system: Chromo bacterium violaceum; experiment: Agar disc diffusion antibacterial test; conditions: for Inhibition %: (T–C)/T × 100
[8] = system: Candida albicans; experiment: Agar disc diffusion antifungal test; conditions: for Inhibition %: (T–C)/T × 100
[9] = C, (-) Chromo bacterium violaceum
[10] = read-out: diameter of clear zone inhibition

[O-]c1ccccc1N=Cc1ccc(N2CCOCC2)cc1.[O-]c1ccccc1N=Cc1ccc(N2CCOCC2)cc1.[Zn+2].c1cnc2c(c1)ccc1cccnc12 [(2b), [Zn^II(L)2(phen)]]
Kb, Method II [1]: 32242 M⁻¹ | Kb, Method III [1]: 18300 M⁻¹ | Kred/Koxi (Calcd) [1]: 3.7609 | Kred/Koxi Found (I) [1]: 1.1168 | Kb, Method I, Oxi [1]: 14610 M⁻¹ | Kb, Method I, Red [1]: 16317 M⁻¹ | S (binding site size) [1]: 0.248 bp | diameter of clear zone inhibition ([2]; G, (+) Bacillus cereus, 20 µL of 100 µM on 6 mm disc, Control (DMSO) = 6 mm): 11 mm | Inhibition % ([2]; G, (+) Bacillus cereus): 45% | % Inhibition, DPPH ([3]; 40 µM): 12.82% | % Inhibition, DPPH ([3]; 80 µM): 24.88% | % Inhibition, DPPH ([3]; 120 µM): 30.89% | % Inhibition, DPPH ([3]; 160 µM): 40.27% | % Inhibition, DPPH ([3]; 200 µM): 50.12% | % Inhibition, DPPH ([3]; 240 µM): 60.66% | IC50 [3]: 200 µM | diameter of clear zone inhibition ([4]; J, 20 µL of 100 µM on 6 mm disc, Control (DMSO) = 6 mm): 10 mm | Inhibition % ([4]; J): 40% | ΔGb° values, range over all methods (WS, BH, SK) ([5]; DNA binding, UV–Vis titration): −24.47 to −24.65 kJmol^−1 | % H (hypochromism) [5]: 55.75% | Δλ nm (red shift on binding to CT-DNA) [5]: 5 nm | Kb, BH–I (Benesi–Hildebrand method I) ([5]; UV–Vis titration): 20131 M⁻¹ | Kb, BH–II (Benesi–Hildebrand method II) ([5]; UV–Vis titration): 20035 M⁻¹ | Kb, SK–I (Sakthi–Krause method I) ([5]; UV–Vis titration): 19471 M⁻¹ | Kb, SK–II (Sakthi–Krause method II) ([5]; UV–Vis titration): 20897 M⁻¹ | Kb, WS–I (Wolfe-Shimmer method I) ([5]; UV–Vis titration): 19930 M⁻¹ | Kb, WS–II (Wolfe-Shimmer method II) ([5]; UV–Vis titration): 20811 M⁻¹ | ΔGb°, BH–I [5]: −24.55 kJmol^−1 | ΔGb°, BH–II [5]: −24.54 kJmol^−1 | ΔGb°, SK–I [5]: −24.47 kJmol^−1 | ΔGb°, SK–II [5]: −24.65 kJmol^−1 | ΔGb°, WS–I [5]: −24.53 kJmol^−1 | ΔGb°, WS–II [5]: −24.64 kJmol^−1 | % Inhibition, hydroxyl radical ([6]; 40 µM): 08.33% | % Inhibition, hydroxyl radical ([6]; 80 µM): 17.12% | % Inhibition, hydroxyl radical ([6]; 120 µM): 27.05% | % Inhibition, hydroxyl radical ([6]; 160 µM): 36.68% | % Inhibition, hydroxyl radical ([6]; 200 µM): 47.03% | % Inhibition, hydroxyl radical ([6]; 240 µM): 57.83% | diameter of clear zone inhibition ([7]; C, (-) Chromo bacterium violaceum, 20 µL of 100 µM on 6 mm disc, Control (DMSO) = 6 mm): 11 mm | Inhibition % [7, 9]: 45% | diameter of clear zone inhibition ([8]; I, 20 µL of 100 µM on 6 mm disc, Control (DMSO) = 6 mm): 10 mm | Inhibition % ([8]; I): 40%

Oc1ccccc1N=Cc1ccc(N2CCOCC2)cc1 [(HL), 2-(4-morpholinobenzylideneamino)phenol]
Kb, Method II [1]: 2477 M⁻¹ | Kb, Method III [1]: 4837 M⁻¹ | Kred/Koxi (Calcd) [1]: 2.0964 | Kred/Koxi Found (I) [1]: 1.1125 | Kb, Method I, Oxi [1]: 5280 M⁻¹ | Kb, Method I, Red [1]: 5874 M⁻¹ | S (binding site size) [1]: 0.446 bp | zone of inhibition at 100 µM ([2]; Bacillus cereus, read-out: diameter of clear zone inhibition): 9 mm | Inhibition % ([2]; G, (+) Bacillus cereus): 33% | % Inhibition, DPPH ([3]; 40 µM): 09.45% | % Inhibition, DPPH ([3]; 80 µM): 15.21% | % Inhibition, DPPH ([3]; 120 µM): 26.36% | % Inhibition, DPPH ([3]; 160 µM): 34.56% | % Inhibition, DPPH ([3]; 200 µM): 39.41% | % Inhibition, DPPH ([3]; 240 µM): 52.45% | Inhibition % ([4]; J): 45% | zone of inhibition at 100 µM [4, 10]: 11 mm | % H (hypochromism) [5]: 46.88% | Δλ nm (red shift on binding to CT-DNA) [5]: 4 nm | Kb, BH–I (Benesi–Hildebrand method I) ([5]; UV–Vis titration): 1.0545 (1.0545) × 10^4 M^−1 | Kb, BH–II (Benesi–Hildebrand method II) ([5]; UV–Vis titration): 1.0545 (1.0545) × 10^4 M^−1 | Kb, SK–I (Sakthi–Krause method I) ([5]; UV–Vis titration): 8775 M⁻¹ | Kb, SK–II (Sakthi–Krause method II) ([5]; UV–Vis titration): 15618 M⁻¹ | Kb, WS–I (Wolfe-Shimmer method I) ([5]; UV–Vis titration): 15169 M⁻¹ | Kb, WS–II (Wolfe-Shimmer method II) ([5]; UV–Vis titration): 15480 M⁻¹ | ΔGb°, BH–I [5]: −22.95 (−22.95) kJmol^−1 | ΔGb°, BH–II [5]: −22.95 (−22.95) kJmol^−1 | ΔGb°, SK–I [5]: −22.50 kJmol^−1 | ΔGb°, SK–II [5]: −23.92 kJmol^−1 | ΔGb°, WS–I [5]: −23.85 kJmol^−1 | ΔGb°, WS–II [5]: −23.90 kJmol^−1 | % Inhibition, hydroxyl radical ([6]; 40 µM): 07.26% | % Inhibition, hydroxyl radical ([6]; 80 µM): 14.43% | % Inhibition, hydroxyl radical ([6]; 120 µM): 25.52% | % Inhibition, hydroxyl radical ([6]; 160 µM): 33.86% | % Inhibition, hydroxyl radical ([6]; 200 µM): 40.73% | % Inhibition, hydroxyl radical ([6]; 240 µM): 50.68% | Inhibition % [7, 9]: 45% | zone of inhibition at 100 µM [7, 10]: 11 mm | Inhibition % ([8]; I): 40% | zone of inhibition at 100 µM [8, 10]: 10 mm
